Earlier results in patent US20220401207A1, “DEVICES, SYSTEMS, AND METHODS FOR TREATMENT OF DUCT OCCLUSION” (Purdue Research Foundation, priority 2021, published 2022).

Tests used:
[1] = system: bacteria isolated from bile; conditions: number of bile cultures, N-acetyl-cysteine n = 12, co-trimoxazole n = 10
[2] = system: cancerous mass; conditions: drug-eluting stent, drug comprises gemcitabine
[3] = system: gall bladder; conditions: opossums, CCK infused into the body

Row | Compound | Bile samples cultured with Clostridium species [1] | Bile samples cultured with Enterobacter species [1] | Bile samples cultured with Enterococcus species [1] | Bile samples cultured with K. oxytoca [1] | Bile samples cultured with K. pneumonia [1] | Bile samples cultured with Klebsiella species [1] | other results
1 | CC(=O)N[C@@H](CS)C(=O)O [N-acetyl-cysteine] | 5 | 6 | 10 | 5 | 3 | 8 | Bile samples cultured with Citrobacter freundii [1]: 1; Bile samples cultured with Proteus species [1]: 1; Bile samples cultured with Escherichia coli ([1]; **p < 0.05): 6; Bile samples cultured with Streptococcus species ([1]; **p < 0.05): 4
2 | Nc1ccn([C@@H]2O[C@H](CO)[C@@H](O)C2(F)F)c(=O)n1 [gemcitabine] | – | – | – | – | – | – | Life span of subjects [2]: increased life spans; Tumor size [2]: decreased tumor size
3 | Co-trimoxazole | 2 | 2 | 6 | 1 | 4 | 5 | Bile samples cultured with Bacteroides fragilis [1]: 1; Bile samples cultured with Candida species [1]: 2; Bile samples cultured with Pseudomonas aeruginosa [1]: 1; Bile samples cultured with Staphylococcus epidermidis [1]: 1
4 | cholecystokinin [CCK] | – | – | – | – | – | – | Compliance (and thus the pressure) of the gall bladder [3]: drops
